Here are results for 47 compounds from PubChem BioAssay AID1508612.

SMILES strings stand for the structures.

This data set in a line: passive permeability, PAMPA, ADME assay (AID 1508612). The settings on record: pH 7.4, 30.0 min, 50.0 µM.

`COC(=N)c1nc2ccc3ncnc(Nc4ccc(F)cc4Br)c3c2s1` showed a Papp of 28 ×10⁻⁶ cm/s.
Compound `COc1ccc2c(c1)CCc1c-2n[nH]c1C(=O)N1CCc2c(nc3cc(-c4ccccc4)[nH]n3c2=O)C1` registered an apparent permeability coefficient (Papp) of 15.8 ×10⁻⁶ cm/s.
Then `Fc1cccc(CNc2nc(-c3ccccc3C(F)(F)F)nc3ccccc23)c1`, with 315 ×10⁻⁶ cm/s; and `c1cc(-c2cc(-c3ccncc3)c3cncn3c2)c2cc[nH]c2c1`, with 236 ×10⁻⁶ cm/s.
`Cc1ccc(S(=O)(=O)N2CCN(C(=O)c3cc4c(s3)CCC4)CC2)cc1` had a Papp of over 1000 ×10⁻⁶ cm/s.
`CCOC(=O)N1CCN(C(=O)Cn2sc3nc(C)cc(C)c3c2=O)CC1` gave a Papp of 47.1 ×10⁻⁶ cm/s.
As for `Cn1cnc(-c2nccc3c(=O)[nH]c(OCCCC(F)(F)F)nc23)c1`, the figure is 109 ×10⁻⁶ cm/s; as for `O=C(CCS(=O)(=O)c1nc(-c2cccs2)cc(C(F)(F)F)n1)Nc1ccc(OC(F)(F)F)cc1`, 5.76 ×10⁻⁶ cm/s; as for `COc1ccc(C2Nc3ccccc3C(=O)N2Cc2ccco2)cc1COc1ccc(NC(C)=O)cc1` (configuration not stated), 329 ×10⁻⁶ cm/s.
Then `CN1CCCC1CCOC(c1cc2nccc(C(=O)O)c2[nH]1)c1ccccc1Cl` (configuration not stated), with 1.1 ×10⁻⁶ cm/s.
Regarding `COc1ccc(-c2cc(-c3cccc4[nH]ncc34)cn3cncc23)cn1`, the apparent permeability (Papp) is under 1 ×10⁻⁶ cm/s.
Turning to `Cc1csc2c1c(=O)n(O)c(=O)n2Cc1ccccc1`, the Papp is 116 ×10⁻⁶ cm/s.
Regarding `C[C@H]1CN(C(=O)Nc2ccc(F)cc2F)C[C@@H]1c1nc(-c2ccccc2)no1`, the Papp was over 1000 ×10⁻⁶ cm/s.
In turn, `Cc1ccc2nc(NC3=NC(c4[nH]ncc4Cl)C4=C(CCCC4=O)N3)oc2c1` (configuration not stated) had a Papp of 997 ×10⁻⁶ cm/s.
Turning to `Cn1c(=O)c2cc(C(=O)NCCCN3CCN(c4ccccc4F)CC3)sc2c2ccccc21`, the Papp is over 1000 ×10⁻⁶ cm/s.
As for `CC(C)(C)c1ccc(-c2ccc(=O)n(CC(=O)NCCc3ccccc3)n2)cc1`, the figure is over 1000 ×10⁻⁶ cm/s; as for `Cc1cccc(CS(=O)(=O)c2ncc(Cl)c(C(=O)Nc3nc4ccc(F)cc4s3)n2)c1`, 261 ×10⁻⁶ cm/s; as for `Cc1cc(NS(=O)(=O)c2ccc(NC(=O)Cc3ccc(Cl)c(Cl)c3)cc2)n(C)n1`, 31.7 ×10⁻⁶ cm/s.
Regarding `COc1cc(C2c3c(oc4cc(C)c(C)cc4c3=O)C(=O)N2CCCN2CCOCC2)ccc1O` (configuration not stated), the apparent permeability coefficient (Papp) was 118 ×10⁻⁶ cm/s.
Then `CC(C)(C)c1ccc(S(=O)(=O)N2CCC(c3ccncc3)CC2)cc1`, with 320 ×10⁻⁶ cm/s.
Then `Cc1ccc(S(=O)(=O)Nc2cncc(C(=O)Nc3nc(-c4ccccc4)cs3)c2)cc1`, with 71.2 ×10⁻⁶ cm/s; and `CCc1ccc(NC(=O)c2[nH]c(C)c(C(C)=O)c2C)cc1S(=O)(=O)Nc1ccc(Br)cc1`, with under 1 ×10⁻⁶ cm/s; and `NC(=O)C1CCN(c2nc(-c3cccnc3)cs2)CC1`, with 23.2 ×10⁻⁶ cm/s.
Then `FC(F)(F)c1ccccc1-c1nc(NCc2ccc(-c3cccnc3)cc2)c2ccccc2n1`, with 786 ×10⁻⁶ cm/s; and `Fc1ccc(Oc2nc(-c3ccncc3)nc3ccccc23)cc1F`, with 16.5 ×10⁻⁶ cm/s; and `Cn1cc(Cl)c(C2N=C(Nc3nc4ccccc4o3)NC3=C2C(=O)CCC3)n1` (configuration not stated), with 633 ×10⁻⁶ cm/s.
For the compound `O=C(Cc1ccccc1)Nc1ccc(S(=O)(=O)Nc2nccs2)cc1`, the Papp worked out at 1.67 ×10⁻⁶ cm/s.
As for `CCOC(=O)C1CCN(C(=O)C2(NC(=O)Nc3ccccc3Cl)CCC2)CC1`, the figure is 266 ×10⁻⁶ cm/s.
Compound `NC(=O)C1CCN(c2nc(-c3ccc(N)cc3)cs2)CC1` had a Papp of 87.1 ×10⁻⁶ cm/s.
In turn, `CN(C)c1ccc2cc(C(=O)N[C@@H](CCCN=C(N)CCl)C(=O)NCc3ccccc3)ccc2c1` gave a Papp of under 1 ×10⁻⁶ cm/s.
`Cc1cccc(-c2noc([C@@H]3Cc4nc[nH]c4CN3)n2)c1`: the Papp came out at 343 ×10⁻⁶ cm/s.
On to `Cc1cccc(S(=O)(=O)c2cn(Cc3ccccc3)c3cc(N4CCCC(C)C4)c(F)cc3c2=O)c1` (configuration not stated), for which the apparent permeability (Papp) was over 1000 ×10⁻⁶ cm/s.
Turning to `OC(CCN1CCCCC1)c1ccc(-c2ccccc2)cc1` (configuration not stated), the Papp is over 1000 ×10⁻⁶ cm/s.
`Cc1ccc(S(=O)(=O)Nc2ccccc2C(=O)Nc2ccc(-c3ccccc3)nn2)cc1`: the Papp was over 1000 ×10⁻⁶ cm/s.
For `COC(=O)c1cc(Cl)ccc1NC(=O)CSc1ncc(S(=O)(=O)c2ccc(Br)cc2)c(=O)[nH]1`, the Papp worked out at 68.7 ×10⁻⁶ cm/s.
The compound `CCc1ccc(-n2nc(C)c3c2NC(=O)CSC3c2ccccc2C)cc1` (configuration not stated) yielded a Papp of 707 ×10⁻⁶ cm/s.
As for `CC1=C(C(=O)Nc2nncs2)C(c2nn(C)cc2Cl)N=C(Nc2nc3ccccc3o2)N1` (configuration not stated), the figure is over 1000 ×10⁻⁶ cm/s.
Then `NC(=O)c1cccc(-c2cc(Nc3ccc(OC(F)(F)F)cc3)ncn2)c1`, with 579 ×10⁻⁶ cm/s; and `CC(C)NC(=O)c1nc(-c2ccc(Cl)nc2)c2cnccn12`, with 723 ×10⁻⁶ cm/s.
Turning to `COc1ccc(Cn2c(C(=O)O)c(CNCc3cccc(OC)c3)c3ccc(C)cc32)cc1`, the Papp turned out to be 361 ×10⁻⁶ cm/s.
In turn, `CC(C)CN(CC(=O)N(CCCN1CCCC1=O)CC(N)=O)C(=O)CNCCc1ccccc1F` showed a Papp of 11.6 ×10⁻⁶ cm/s.
As for `NC(=O)C1CCN(c2nccc(-c3ccc4c(c3)OCCCO4)n2)CC1`, the figure is 653 ×10⁻⁶ cm/s.
Then `CCOC(=O)CCNc1cc(N2CCc3ccccc3CC2)nc(-c2cccnc2)n1`, with 951 ×10⁻⁶ cm/s; and `Cc1ccc(S(=O)(=O)Nc2cnccc2C(=O)Nc2nc(-c3cc(Br)cs3)cs2)cc1`, with 9.1 ×10⁻⁶ cm/s.
As for `C[C@@H](O)CNC(C)(C)CC(=O)N[C@@H]1CCc2ccccc2N(Cc2ccc(-c3ccccc3-c3nn[nH]n3)cc2)C1=O`, the figure is under 1 ×10⁻⁶ cm/s.
The compound `COc1cccc(CNc2ccc([S+](=O)([O-])Nc3cc4ccccc4s3)cc2)c1O` had a Papp of 888 ×10⁻⁶ cm/s.
Then `Cc1cc(-c2nnc3n2CCCCC3)c(C)n1-c1cccnc1`, with 49.2 ×10⁻⁶ cm/s.
